Measurements as given in ChEMBL document CHEMBL5506040, “Design of FK866-Based Degraders for Blocking the Nonenzymatic Functions of Nicotinamide Phosphoribosyltransferase” (J Med Chem, 2024).
Active and inactive are the calls of the source. The rule behind the calls is not given here.

How the values were obtained:
[1] = target: T1, Protein cereblon/Nicotinamide phosphoribosyltransferase (Homo sapiens) (UniProt P43490+Q96SW2); test: PROTAC activity at CRBN/NAMPT in human SK-OV-3 cells assessed as induction of intracellular NAMPT degradation at 0.5 to 5 uM incubated for 24 hrs by Western blot analysis; type: cell-based; settings: dose 0.5-5 µM
[2] = system: SK-OV-3; test: cells; settings: Homo sapiens, SK-OV-3, 72 h
Description: Cytotoxicity against human SK-OV-3 cells assessed as inhibition of cell growth incubated for 72 hrs by MTT assay

[3] = system: MIA PaCa-2; test: cells; settings: Homo sapiens, MIA PaCa-2, 72 h
Description: Cytotoxicity against human MIA PaCa-2 cells assessed as inhibition of cell growth incubated for 72 hrs by MTT assay

[4] = target: T1, Protein cereblon/Nicotinamide phosphoribosyltransferase (Homo sapiens); test: PROTAC activity at CRBN/NAMPT in human SK-OV-3 cells assessed as induction of intracellular NAMPT degradation at 0.5 uM incubated for 24 hrs by Western blot analysis relative to control; type: cell-based
[5] = target: T1, Protein cereblon/Nicotinamide phosphoribosyltransferase (Homo sapiens); test: PROTAC activity at CRBN/NAMPT in human SK-OV-3 cells assessed as induction of intracellular NAMPT degradation at 5 uM incubated for 24 hrs by Western blot analysis relative to control; type: cell-based
[6] = target: Nicotinamide phosphoribosyltransferase (Mus musculus) (UniProt Q99KQ4); test: Induction of NAMPT degradation in mouse CT26 cells at 0.1 to 5 uM incubated for 24 hrs by Western blot analysis; type: cell-based; settings: dose 0.1-5 µM
[7] = system: CT26; test: cells; settings: Mus musculus, CT26, 72 h
Description: Cytotoxicity against mouse CT26 cells assessed as inhibition of cell growth incubated for 72 hrs by MTT assay

[8] = target: T2, von Hippel-Lindau disease tumor suppressor/Nicotinamide phosphoribosyltransferase (Homo sapiens, UniProt P43490+P40337); test: PROTAC activity at VHL/NAMPT in human SK-OV-3 cells assessed as induction of intracellular NAMPT degradation incubated for 24 hrs by Western blot analysis relative to control; type: cell-based
[9] = target: T2, von Hippel-Lindau disease tumor suppressor/Nicotinamide phosphoribosyltransferase; test: PROTAC activity at VHL/NAMPT in human MKN-45 cells assessed as induction of intracellular NAMPT degradation incubated for 24 hrs by Western blot analysis relative to control; type: cell-based
[10] = target: T3, von Hippel-Lindau disease tumor suppressor/Nicotinamide phosphoribosyltransferase (Mus musculus) (UniProt Q99KQ4+P40338); test: (§1) PROTAC activity at VHL/NAMPT in mouse CT26 cells assessed as induction of intracellular NAMPT degradation incubated for 24 hrs by Western blot analysis; type: cell-based
[11] = target: von Hippel-Lindau disease tumor suppressor/Nicotinamide phosphoribosyltransferase (Mus musculus, UniProt Q99KQ4+P40338); test: as §1; type: cell-based
[12] = target: T3, von Hippel-Lindau disease tumor suppressor/Nicotinamide phosphoribosyltransferase (Mus musculus); test: PROTAC activity at VHL/NAMPT in mouse CT26 cells assessed as induction of extracellular NAMPT degradation at 0.1 to 5 uM incubated for 24 hrs by Western blot analysis; type: cell-based; settings: dose 0.1-5 µM
[13] = target: Nicotinamide phosphoribosyltransferase (Homo sapiens) (UniProt P43490); settings: SK-OV-3, dose 100.0 nM, time 24.0 hrs
Nicotinamide phosphoribosyltransferase (Homo sapiens), sequence (P43490 whole entry, looked up): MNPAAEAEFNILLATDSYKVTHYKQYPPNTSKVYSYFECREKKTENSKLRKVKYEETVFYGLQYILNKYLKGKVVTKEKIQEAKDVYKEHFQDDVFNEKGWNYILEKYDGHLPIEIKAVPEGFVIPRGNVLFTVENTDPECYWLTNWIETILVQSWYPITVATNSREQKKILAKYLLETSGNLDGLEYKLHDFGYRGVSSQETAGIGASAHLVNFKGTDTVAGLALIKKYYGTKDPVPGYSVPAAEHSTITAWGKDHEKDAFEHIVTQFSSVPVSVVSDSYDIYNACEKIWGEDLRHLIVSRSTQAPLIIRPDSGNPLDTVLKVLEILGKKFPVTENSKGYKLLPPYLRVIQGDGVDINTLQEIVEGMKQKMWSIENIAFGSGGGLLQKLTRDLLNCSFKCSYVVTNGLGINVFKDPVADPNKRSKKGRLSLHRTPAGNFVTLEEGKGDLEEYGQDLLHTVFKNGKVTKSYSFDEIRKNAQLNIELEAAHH

T1 sequence (P43490 whole entry, looked up): as above
T1 sequence (Q96SW2 whole entry, looked up): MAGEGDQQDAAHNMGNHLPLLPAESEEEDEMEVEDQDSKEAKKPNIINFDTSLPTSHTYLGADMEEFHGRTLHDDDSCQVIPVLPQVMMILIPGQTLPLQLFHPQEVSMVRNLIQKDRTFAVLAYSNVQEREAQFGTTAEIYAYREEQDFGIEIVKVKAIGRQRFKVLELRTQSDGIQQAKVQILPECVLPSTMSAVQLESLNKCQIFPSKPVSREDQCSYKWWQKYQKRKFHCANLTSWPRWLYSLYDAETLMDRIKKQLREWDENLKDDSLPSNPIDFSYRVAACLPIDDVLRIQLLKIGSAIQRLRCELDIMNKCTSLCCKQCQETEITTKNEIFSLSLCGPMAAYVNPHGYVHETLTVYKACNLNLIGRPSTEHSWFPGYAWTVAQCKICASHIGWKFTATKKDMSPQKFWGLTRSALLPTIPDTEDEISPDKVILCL
T3 sequence (P40338 whole entry, looked up): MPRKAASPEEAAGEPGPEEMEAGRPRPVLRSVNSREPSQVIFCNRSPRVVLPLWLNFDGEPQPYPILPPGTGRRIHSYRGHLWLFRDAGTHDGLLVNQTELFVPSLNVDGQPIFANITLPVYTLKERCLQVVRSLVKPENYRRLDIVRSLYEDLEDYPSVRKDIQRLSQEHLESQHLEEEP
T3 sequence (Q99KQ4 whole entry, looked up): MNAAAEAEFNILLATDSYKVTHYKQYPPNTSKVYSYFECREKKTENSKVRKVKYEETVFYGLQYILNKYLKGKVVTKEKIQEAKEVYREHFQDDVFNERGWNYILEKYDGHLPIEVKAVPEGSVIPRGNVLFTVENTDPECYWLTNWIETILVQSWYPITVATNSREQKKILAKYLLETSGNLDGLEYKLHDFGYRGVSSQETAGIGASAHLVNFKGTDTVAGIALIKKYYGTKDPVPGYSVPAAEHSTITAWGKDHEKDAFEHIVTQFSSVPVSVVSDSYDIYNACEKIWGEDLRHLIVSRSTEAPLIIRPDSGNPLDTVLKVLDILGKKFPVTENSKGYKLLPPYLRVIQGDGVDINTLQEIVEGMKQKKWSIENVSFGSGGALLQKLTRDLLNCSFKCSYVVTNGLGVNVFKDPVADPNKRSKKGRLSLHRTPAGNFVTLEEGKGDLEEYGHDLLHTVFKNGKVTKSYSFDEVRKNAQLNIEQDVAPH
T2 sequence (P43490 whole entry): as the sequence (P43490 whole entry, looked up) above
T2 sequence (P40337 whole entry): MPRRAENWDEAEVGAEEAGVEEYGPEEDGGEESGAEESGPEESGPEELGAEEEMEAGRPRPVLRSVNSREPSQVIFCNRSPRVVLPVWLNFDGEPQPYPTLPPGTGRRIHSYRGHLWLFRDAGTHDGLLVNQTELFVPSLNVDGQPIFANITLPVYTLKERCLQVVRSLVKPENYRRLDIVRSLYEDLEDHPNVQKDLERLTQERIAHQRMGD
von Hippel-Lindau disease tumor suppressor/Nicotinamide phosphoribosyltransferase (Mus musculus, UniProt Q99KQ4+P40338), sequence (Q99KQ4 whole entry): as the sequence (Q99KQ4 whole entry, looked up) above
von Hippel-Lindau disease tumor suppressor/Nicotinamide phosphoribosyltransferase (Mus musculus, UniProt Q99KQ4+P40338), sequence (P40338 whole entry): as the sequence (P40338 whole entry, looked up) above
Nicotinamide phosphoribosyltransferase (Mus musculus), sequence (Q99KQ4 whole entry, looked up): as the sequence (Q99KQ4 whole entry, looked up) above

SMILES | Activity [1] | IC50 [2] [nM] | IC50 [3] [nM] | Activity [4] [%] | Activity [5] [%] | also measured
O=C(/C=C/c1cccnc1)NCCCCC1CCN(C(=O)c2ccc(C(=O)N3CCN(Cc4ccc(CNc5cccc6c5C(=O)N(C5CCC(=O)NC5=O)C6=O)cc4)CC3)cc2)CC1 (centres undefined) | inactive | 4 | 4 | – | – | –
O=C(/C=C/c1cccnc1)NCCCCC1CCN(C(=O)c2ccc(C(=O)NCCCNc3cccc4c3C(=O)N(C3CCC(=O)NC3=O)C4=O)cc2)CC1 (centres undefined) | – | 4 | 4 | 29 | 0 | –
O=C(/C=C/c1cccnc1)NCCCCC1CCN(C(=O)c2ccc(C(=O)N3CCC4(CCN(c5cccc6c5C(=O)N(C5CCC(=O)NC5=O)C6=O)C4)C3)cc2)CC1 (centres undefined) | inactive | 4 | 4 | – | – | –
O=C(/C=C/c1cccnc1)NCCCCC1CCN(C(=O)c2ccc(C(=O)NCCNc3cccc4c3C(=O)N(C3CCC(=O)NC3=O)C4=O)cc2)CC1 (centres undefined) | – | 4 | 4 | 0 | 11 | –
O=C(/C=C/c1cccnc1)NCCCCC1CCN(C(=O)c2ccc(C(=O)N3CCC4(CC3)CC(C(=O)N3CCN(c5cccc6c5C(=O)N(C5CCC(=O)NC5=O)C6=O)CC3)C4)cc2)CC1 (centres undefined) | inactive | 4 | 4 | – | – | –
O=C(/C=C/c1cccnc1)NCCCCC1CCN(C(=O)c2ccc(C(=O)NCc3cn(CCOCCOCCOCCOCCOCCNc4cccc5c4C(=O)N(C4CCC(=O)NC4=O)C5=O)nn3)cc2)CC1 (centres undefined) | – | 4 | 4 | 51 | 52 | –
O=C(/C=C/c1cccnc1)NCCCCC1CCN(C(=O)c2ccc(C(=O)NCCCCCNc3cccc4c3C(=O)N(C3CCC(=O)NC3=O)C4=O)cc2)CC1 (centres undefined) | – | 4 | 4 | 0 | 0 | –
O=C(/C=C/c1cccnc1)NCCCCC1CCN(C(=O)c2ccc(NC(=O)CCCCN3CCN(c4cccc5c4C(=O)N(C4CCC(=O)NC4=O)C5=O)CC3)cc2)CC1 (centres undefined) | inactive | 4 | 4 | – | – | –
O=C(/C=C/c1cccnc1)NCCCCC1CCN(C(=O)c2ccc(C(=O)NCc3cn(CCOCCOCCNc4cccc5c4C(=O)N(C4CCC(=O)NC4=O)C5=O)nn3)cc2)CC1 (centres undefined) | – | 4 | 4 | 0 | 0 | –
Cc1ncsc1-c1ccc([C@H](C)NC(=O)[C@H]2C[C@H](O)CN2C(=O)[C@@H](NC(=O)COCCOCCOCCNC(=O)c2ccc(C(=O)N3CCC(CCCCNC(=O)/C=C/c4cccnc4)CC3)cc2)C(C)(C)C)cc1 | – | – | – | – | – | Activity [6]: inactive
O=C(/C=C/c1cccnc1)NCCCCC1CCN(C(=O)c2ccc(NC(=O)CCCN3CCN(c4cccc5c4C(=O)N(C4CCC(=O)NC4=O)C5=O)CC3)cc2)CC1 (centres undefined) | inactive | 4 | 4 | – | – | –
O=C(/C=C/c1cccnc1)NCCCCC1CCN(C(=O)c2ccc(C(=O)NCc3cn(CCOCCOCCOCCNc4cccc5c4C(=O)N(C4CCC(=O)NC4=O)C5=O)nn3)cc2)CC1 (centres undefined) | – | 4 | 4 | 34 | 20 | –
O=C(/C=C/c1cccnc1)NCCCCC1CCN(C(=O)c2ccc(NC(=O)c3ccc(CN4CCN(c5cccc6c5C(=O)N(C5CCC(=O)NC5=O)C6=O)CC4)cc3)cc2)CC1 (centres undefined) | inactive | 4 | 4 | – | – | –
O=C(/C=C/c1cccnc1)NCCCCC1CCN(C(=O)c2ccc(C(=O)N3CCC(C(=O)N4CCN(c5cccc6c5C(=O)N(C5CCC(=O)NC5=O)C6=O)CC4)CC3)cc2)CC1 (centres undefined) | inactive | 4 | 4 | – | – | –
O=C(/C=C/c1cccnc1)NCCCCC1CCN(C(=O)c2ccc(NC(=O)COCCOCCNc3cccc4c3C(=O)N(C3CCC(=O)NC3=O)C4=O)cc2)CC1 (centres undefined) | – | 4 | 4 | 0 | 0 | –
O=C(/C=C/c1cccnc1)NCCCCC1CCN(C(=O)c2ccc(C(=O)N3CC4(CCN(c5cccc6c5C(=O)N(C5CCC(=O)NC5=O)C6=O)CC4)C3)cc2)CC1 (centres undefined) | inactive | 4 | 4 | – | – | –

SMILES | Activity [1] | IC50 [2] [nM] | IC50 [3] [nM] | Activity [4] [%] | Activity [5] [%] | also measured
O=C(/C=C/c1cccnc1)NCCCCC1CCN(C(=O)c2ccc(C(=O)NCc3cn(CCOCCOCCOCCOCCNc4cccc5c4C(=O)N(C4CCC(=O)NC4=O)C5=O)nn3)cc2)CC1 (centres undefined) | – | 4 | 4 | 40 | 27 | –
O=C(/C=C/c1cccnc1)NCCCCC1CCN(C(=O)c2ccc(NC(=O)COCCOCCOCCNc3cccc4c3C(=O)N(C3CCC(=O)NC3=O)C4=O)cc2)CC1 (centres undefined) | – | 4 | 4 | 0 | 0 | –
O=C(/C=C/c1cccnc1)NCCCCC1CCN(C(=O)c2ccc(C(=O)NCCCCNc3cccc4c3C(=O)N(C3CCC(=O)NC3=O)C4=O)cc2)CC1 (centres undefined) | – | 4 | 4 | 0 | 22 | –
O=C(/C=C/c1cccnc1)NCCCCC1CCN(C(=O)c2ccc(C(=O)N3CCC4(CC3)CN(c3cccc5c3C(=O)N(C3CCC(=O)NC3=O)C5=O)C4)cc2)CC1 (centres undefined) | inactive | 4 | 4 | – | – | –
O=C(/C=C/c1cccnc1)NCCCCC1CCN(C(=O)c2ccc(C(=O)N3CCC(C(=O)Nc4cccc5c4C(=O)N(C4CCC(=O)NC4=O)C5=O)CC3)cc2)CC1 (centres undefined) | inactive | 4 | 4 | – | – | –
Cc1ncsc1-c1ccc([C@@H](C)NC(=O)[C@@H]2C[C@@H](O)CN2C(=O)[C@@H](NC(=O)COCCOCCOCCOCCNC(=O)c2ccc(CN3CCN(S(=O)(=O)c4ccc(NC(=S)NCc5cccnc5)cc4)CC3)cc2)C(C)(C)C)cc1 | – | 9930 | – | – | – | IC50 [7]: > 100000 nM
O=C(/C=C/c1cccnc1)NCCCCC1CCN(C(=O)c2ccc(C(=O)NCCCCCc3cccc4c3CN(C3CCC(=O)NC3=O)C4=O)cc2)CC1 (centres undefined) | – | 4 | 4 | 0 | 0 | –
O=C(/C=C/c1cccnc1)NCCCCC1CCN(C(=O)c2ccc(C(=O)N3CCN(c4cccc5c4C(=O)N(C4CCC(=O)NC4=O)C5=O)CC3)cc2)CC1 (centres undefined) | inactive | 4 | 4 | – | – | –
O=C(/C=C/c1cccnc1)NCCCCC1CCN(C(=O)c2ccc(NC(=O)CN3CCN(c4cccc5c4C(=O)N(C4CCC(=O)NC4=O)C5=O)CC3)cc2)CC1 (centres undefined) | inactive | 4 | 4 | – | – | –
O=C(/C=C/c1cccnc1)NCCCCC1CCN(C(=O)c2ccc(C(=O)N3CCC4(C3)CN(c3cccc5c3C(=O)N(C3CCC(=O)NC3=O)C5=O)C4)cc2)CC1 (centres undefined) | inactive | 4 | 4 | – | – | –
O=C(/C=C/c1cccnc1)NCCCCC1CCN(C(=O)c2ccc(C(=O)NCCCCCCNc3cccc4c3C(=O)N(C3CCC(=O)NC3=O)C4=O)cc2)CC1 (centres undefined) | – | 4 | 4 | 0 | 0 | –
O=C(/C=C/c1cccnc1)NCCCCC1CCN(C(=O)c2ccc(NC(=O)COCCOCCOCCOCCNc3cccc4c3C(=O)N(C3CCC(=O)NC3=O)C4=O)cc2)CC1 (centres undefined) | – | 4 | 4 | 0 | 0 | –
O=C(/C=C/c1cccnc1)NCCCCC1CCN(C(=O)c2ccc(C(=O)N3CCC(CC(=O)Nc4cccc5c4C(=O)N(C4CCC(=O)NC4=O)C5=O)CC3)cc2)CC1 (centres undefined) | inactive | 4 | 4 | – | – | –
O=C(/C=C/c1cccnc1)NCCCCC1CCN(C(=O)c2ccc(C(=O)NCc3cn(CCOCCNc4cccc5c4C(=O)N(C4CCC(=O)NC4=O)C5=O)nn3)cc2)CC1 (centres undefined) | – | 4 | 4 | 25 | 30 | –
O=C(/C=C/c1cccnc1)NCCCCC1CCN(C(=O)c2ccc(NC(=O)CCOCCOCCOCCOCCNc3cccc4c3C(=O)N(C3CCC(=O)NC3=O)C4=O)cc2)CC1 (centres undefined) | – | 4 | 4 | 0 | 0 | –
Cc1ncsc1-c1ccc([C@H](C)NC(=O)[C@@H]2C[C@@H](O)CN2C(=O)[C@@H](NC(=O)COCCOCCOCCOCCNC(=O)c2ccc(C(=O)N3CCC(CCCCNC(=O)/C=C/c4cccnc4)CC3)cc2)C(C)(C)C)cc1 | – | 890 | 4 | – | – | DC50 [8]: 25 nM; DC50 [9]: 6.4 nM; Activity [10]: Dose-Dependent Effect; DC50 [11]: 920 nM; Activity [12]: Active; inhibition [13]: Active; IC50 [7]: 23100 nM
